In US8846363B2, “Compositions of and methods of using sulfatases from Flavobacterium heparinum” (priority 2007, dated 2014):
“Also recorded” adds a separate entry of the source.

Legend:
[1] = molecular target: T1, Flavobacterium heparinum N-sulfamidase (ORF C), recombinant, NH2-terminal truncation lacking signal sequence, SEQ ID NO: 4 (Pedobacter heparinus, UniProt C6Y1N3); test: Inhibition of N-sulfamidase activity (sulfate, phosphate, chelators); assay type: biochemical
T1 construct: E. coli BL21(DE3), N-terminal 6xHis removed by thrombin
T1 sequence (C6Y1N3 entry or part of it): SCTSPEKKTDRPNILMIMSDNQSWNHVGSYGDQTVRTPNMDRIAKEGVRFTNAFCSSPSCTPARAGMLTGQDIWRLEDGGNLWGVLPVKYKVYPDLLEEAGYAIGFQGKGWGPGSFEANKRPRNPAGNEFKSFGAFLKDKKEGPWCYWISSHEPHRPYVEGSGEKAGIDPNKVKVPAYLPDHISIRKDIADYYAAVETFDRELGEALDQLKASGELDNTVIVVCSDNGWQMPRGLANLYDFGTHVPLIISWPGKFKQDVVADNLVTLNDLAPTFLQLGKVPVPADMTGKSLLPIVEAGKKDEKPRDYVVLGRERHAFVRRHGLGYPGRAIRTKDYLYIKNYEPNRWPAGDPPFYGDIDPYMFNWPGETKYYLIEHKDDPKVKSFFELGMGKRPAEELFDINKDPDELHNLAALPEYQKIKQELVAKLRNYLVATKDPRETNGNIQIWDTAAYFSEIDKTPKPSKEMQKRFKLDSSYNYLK
Description: Results are normalized to 0.0 M NaCl added (which is shown as 100%). […] Relative activities (% desulfation) were measured over a pH range of 4-8 using three buffers: sodium acetate (●), MES (◯) and MOPS (▴).
Enzyme kinetics were measured for the 6-O-sulfatase (FIG. 8C) and N-sulfamidase (FIG. 8D) as described in Materials and Methods at varying concentrations of Ca^+2 or in the presence of 1 mM EDTA. Substrate saturation plots were fitted to pseudo first-order Michaelis-Menten kinetics by non-linear regression analyses.
Indirect measurement of enzyme activity was also made using a fluorimetrically-based plate assay in which the prerequisite desulfation of the appropriate glucopyranoside 1→4 methlybelliferone substrate by either the 6-O-sulfatase or N-sulfamidase was coupled to the glucosidase-mediated hydrolysis of the stereo-specific 1→4 glycosidic linkage between the pyranose ring and the adjoining fluorophore. Release of the free fluorophore (4-MU) was monitored spectroscopically as described above for the arylsulfatase assay using 4-MU sulfate. The two sulfatase assays differed in the choice of substrate in accordance to their specificity as well as the glucosidase added during the second, rate-limiting step. For the 6-O-sulfatase, the hydrolysis of the substrate 4-MU-β-D-GlcNAc,6S at the 6-OH position was coupled to β-glucosidase purified from sweet almonds (MP Biomedicals, Solon, Ohio, Catalog No. 195197). Likewise, N-sulfamidase hydrolysis of 4-MU-α-D-GlcNS at the 2-amino position was coupled to α-glucosidase (MP Biomedicals, Catalog No. 153487). […] The presumption of the first (sulfatase) activity being the rate-limiting step was established experimentally. Reaction conditions were optimized to satisfy three related criteria: 1) linear readout of fluorescent signal which is directly proportional to sulfatase activity; 2) quantitative release of 4-MU by glucosidase activity under every biochemical condition examined and; 3) negligible fluorescent quenching of the free chromophore.
Coupled N-sulfamidase assay was generally described for the 6-O-sulfatase, but with the following modifications: 4-MU-GlcNS as substrate, 50 mM sodium acetate at pH 6.0 (instead of 5.5) and 1 μM enzyme. For the second enzyme step, 5 units of α-glucosidase were added. Enzyme incubation was carried out for 22 hours at 37° C. […] All other reaction conditions were as described for the coupled 6-O-sulfatase/β-glucosidase assay.
Having identified chromogenic substrates for each recombinant sulfatase, these substrates were also used to further develop a fluorescence-based plate assay as the means to define the optimal in vitro reaction conditions for each sulfatase.

[2] = molecular target: T2, Flavobacterium heparinum 6-O-sulfatase (ORF B), recombinant, NH2-terminal truncation lacking signal sequence, SEQ ID NO: 2 (Pedobacter heparinus, UniProt C6Y1N4); test: Inhibition of 6-O-sulfatase activity (sulfate, phosphate, chelators); assay type: biochemical
T2 construct: E. coli BL21(DE3), N-terminal 6xHis removed by thrombin
T2 sequence (C6Y1N4 entry or part of it): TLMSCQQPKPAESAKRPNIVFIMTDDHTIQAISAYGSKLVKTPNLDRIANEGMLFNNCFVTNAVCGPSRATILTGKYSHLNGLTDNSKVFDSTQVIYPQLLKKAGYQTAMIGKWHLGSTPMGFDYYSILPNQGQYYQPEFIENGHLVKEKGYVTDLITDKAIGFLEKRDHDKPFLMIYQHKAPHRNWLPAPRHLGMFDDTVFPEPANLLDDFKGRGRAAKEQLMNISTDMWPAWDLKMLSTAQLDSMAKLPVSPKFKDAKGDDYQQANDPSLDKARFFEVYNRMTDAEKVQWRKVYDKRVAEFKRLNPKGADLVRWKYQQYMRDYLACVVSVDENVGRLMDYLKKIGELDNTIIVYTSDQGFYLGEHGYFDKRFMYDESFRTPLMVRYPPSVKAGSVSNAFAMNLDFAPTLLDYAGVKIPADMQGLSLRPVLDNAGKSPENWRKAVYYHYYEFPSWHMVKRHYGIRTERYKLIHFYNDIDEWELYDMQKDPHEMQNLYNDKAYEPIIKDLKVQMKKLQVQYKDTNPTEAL
Description: Results are normalized to 0.0 M NaCl added (which is shown as 100%). 6-O-sulfatase (●); N-sulfamidase (◯). […] Results for 6-O-sulfatase are represented by a solid line; results for N-sulfamidase are represented by a dashed line. […] Log scale for inhibitor concentration, [I]. […] Relative activities (% desulfation) were measured over a pH range of 4-8 using three buffers: sodium acetate (●), MES (◯) and MOPS (▴).
Open bars (no divalent metals added); black bars (1 mM EDTA added); light gray bars (1 mM divalent metal); stippled gray bars (5 mM divalent metal). […] Enzyme kinetics were measured for the 6-O-sulfatase (FIG. 8C) and N-sulfamidase (FIG. 8D) as described in Materials and Methods at varying concentrations of Ca^+2 or in the presence of 1 mM EDTA. Substrate saturation plots were fitted to pseudo first-order Michaelis-Menten kinetics by non-linear regression analyses. 0.5 mM Ca^+2 (●), 1 mM Ca^+2 (◯), 5 mM Ca^+2 (▪), 1 mM EDTA (Δ).
Indirect measurement of enzyme activity was also made using a fluorimetrically-based plate assay in which the prerequisite desulfation of the appropriate glucopyranoside 1→4 methlybelliferone substrate by either the 6-O-sulfatase or N-sulfamidase was coupled to the glucosidase-mediated hydrolysis of the stereo-specific 1→4 glycosidic linkage between the pyranose ring and the adjoining fluorophore. Release of the free fluorophore (4-MU) was monitored spectroscopically as described above for the arylsulfatase assay using 4-MU sulfate. The two sulfatase assays differed in the choice of substrate in accordance to their specificity as well as the glucosidase added during the second, rate-limiting step. […] Reaction conditions were optimized to satisfy three related criteria: 1) linear readout of fluorescent signal which is directly proportional to sulfatase activity; 2) quantitative release of 4-MU by glucosidase activity under every biochemical condition examined and; 3) negligible fluorescent quenching of the free chromophore. […]

In the case of phosphate, the “inhibition of N-sulfamidase by sulfate or phosphate” value [1] is reported as “largely uninhibited; also recorded: not apparently inhibited”.

`O=C(O)CN(CCOCCOCCN(CC(=O)O)CC(=O)O)CC(=O)O` [EGTA] was tested, and the “effect on 6-O-sulfatase specific activity” value ([2]; EGTA, same conditions as N-sulfamidase (5 mM Ca^2+)) was “no appreciable effect”.

With `O=C(O)CN(CCN(CC(=O)O)CC(=O)O)CC(=O)O` [EDTA, ethylenediaminetetracetic acid] the “6-O-sulfatase activity in the presence of EDTA” value ([2]; 1 mM EDTA) was “somewhat active” and the “N-sulfamidase activity in the presence of EDTA” value ([1]; 1 mM EDTA) was “lack of activity”.

For `O=S(=O)(O)O` [sulfate], the IC50 ([2]; normalized to 0 sulfate or phosphate added, read-out: concentration for 50% inhibition of 6-O-sulfatase activity) was ~20 mM and the “inhibition of N-sulfamidase by sulfate or phosphate” value [1] was “largely uninhibited; also recorded: not apparently inhibited”.
